Measurements: ChEMBL document CHEMBL3352226, “Synthesis of novel derivatives of 4-methylbenzimidazole and evaluation of their biological activities” (Eur J Med Chem, 2014)

Legend:
[1] = Toxicity against human THP1 cells assessed as reduction in cell viability after 48 hrs by trypan blue dye exclusion method; format: cell-based; conditions: thp-1, 48 h
[2] = Antiglycation activity using BSA assessed as inhibition of AGE formation incubated at 37 degC for 9 days by fluorescence assay; format: physicochemical
[3] = Antioxidant activity assessed as DPPH free radical scavenging activity incubated at 37 degC for 30 mins by microtiter plate reader based method; format: physicochemical
[4] = Antioxidant activity assessed as superoxide anion radical scavenging activity by nitroblue tetrazolium method; format: physicochemical
Leishmania major = assay: Antileishmanial activity against Leishmania major JISH118 promastigotes infected in human THP1 cells by Giemsa staining method; format: functional, organism-based, THP-1
[5] = Antiglycation activity using BSA assessed as inhibition of AGE formation incubated at 37 degC for 9 days by fluorescence assay relative to untreated control; format: physicochemical; conditions: cattle, 216 h; note: test concentration or dose not given here
[6] = Leishmania major, JISH118, THP-1, read-out: IC50

SMILES | Activity [1] | IC50 ([2]; read-out: IC50) | IC50 [3] | IC50 [4] | IC50 (Leishmania major; [6]) | IC50 (Leishmania major; thp-1) | IC50 [2] | inhibition (INH) [5]
Cc1cccc2nc(-c3ccc(C(=O)N/N=C/c4cccc(O)c4O)cc3)[nH]c12 | Non-toxic | 220 µM | 12.1 µM | 82 µM | 37.8 µM | – | – | –
Cc1cccc2nc(-c3ccc(C(=O)N/N=C/c4cc(O)ccc4O)cc3)[nH]c12 | Non-toxic | 206 µM | 18.5 µM | 86.1 µM | – | Not Active | – | –
Cc1cccc2nc(-c3ccc(C(=O)N/N=C/c4ccc(O)c(O)c4)cc3)[nH]c12 | Non-toxic | 190 µM | 14.2 µM | 81 µM | – | Not Active | – | –
Cc1cccc2nc(-c3ccc(C(=O)N/N=C/c4cc(O)cc(O)c4)cc3)[nH]c12 | Non-toxic | 195 µM | 17.3 µM | 90 µM | – | Not Active | – | –
Cc1cccc2nc(-c3ccc(C(=O)N/N=C/c4ccc(O)cc4O)cc3)[nH]c12 | Non-toxic | 140 µM | 27.4 µM | 92.1 µM | – | Not Active | – | –
Cc1cccc2nc(-c3ccc(C(=O)N/N=C/c4ccc(O)cc4)cc3)[nH]c12 | Non-toxic | 150 µM | 29 µM | 101 µM | – | Not Active | – | –
COc1cc(/C=N/NC(=O)c2ccc(-c3nc4cccc(C)c4[nH]3)cc2)ccc1O | Non-toxic | 271 µM | 26.2 µM | 104 µM | – | Not Active | – | –
Cc1cccc2nc(-c3ccc(C(=O)N/N=C/c4ccc(O)c(Br)c4)cc3)[nH]c12 | Non-toxic | 350 µM | 25.2 µM | 190 µM | – | Not Active | – | –
Cc1cccc2nc(-c3ccc(C(=O)N/N=C/c4ccccc4O)cc3)[nH]c12 | Non-toxic | 380 µM | 54.1 µM | 209 µM | – | Not Active | – | –
COc1ccc(/C=N/NC(=O)c2ccc(-c3nc4cccc(C)c4[nH]3)cc2)c(O)c1 | Non-toxic | 340 µM | 47.5 µM | 202 µM | – | Not Active | – | –
Cc1cccc2nc(-c3ccc(C(=O)N/N=C/c4cccc(O)c4)cc3)[nH]c12 | Non-toxic | 280 µM | 60.2 µM | 212 µM | – | Not Active | – | –
COc1ccc(/C=N/NC(=O)c2ccc(-c3nc4cccc(C)c4[nH]3)cc2)c(I)c1O | Non-toxic | 405 µM | 40.1 µM | 210 µM | – | Not Active | – | –
COc1ccc(/C=N/NC(=O)c2ccc(-c3nc4cccc(C)c4[nH]3)cc2)cc1O | Non-toxic | 360 µM | 49.1 µM | 222 µM | – | Not Active | – | –
COc1ccc(O)c(/C=N/NC(=O)c2ccc(-c3nc4cccc(C)c4[nH]3)cc2)c1 | Non-toxic | 400 µM | 74.2 µM | 215 µM | – | Not Active | – | –
Cc1cccc2nc(-c3ccc(C(=O)N/N=C/c4ccc(F)cc4)cc3)[nH]c12 | Non-toxic | – | 90.2 µM | 320 µM | – | Not Active | Not Active | < 50%
Cc1cccc2nc(-c3ccc(C(=O)N/N=C/c4ccccn4)cc3)[nH]c12 | Non-toxic | – | 94.3 µM | 350 µM | – | Not Active | Not Active | < 50%

SMILES | Activity [1] | IC50 ([2]; read-out: IC50) | IC50 [3] | IC50 [4] | IC50 (Leishmania major; [6]) | IC50 (Leishmania major; thp-1) | IC50 [2] | inhibition (INH) [5]
Cc1cccc2nc(-c3ccc(C(=O)N/N=C/c4cccnc4)cc3)[nH]c12 | Non-toxic | – | 105 µM | 310 µM | – | Not Active | Not Active | < 50%
Cc1cccc2nc(-c3ccc(C(=O)N/N=C/c4ccncc4)cc3)[nH]c12 | Non-toxic | – | 88.4 µM | 340 µM | – | Not Active | Not Active | < 50%
Cc1cccc2nc(-c3ccc(C(=O)N/N=C/c4ccc(Cl)cc4)cc3)[nH]c12 | Non-toxic | – | 120 µM | 360 µM | – | Not Active | Not Active | < 50%
Cc1cccc(/C=N/NC(=O)c2ccc(-c3nc4cccc(C)c4[nH]3)cc2)c1 | Non-toxic | – | 150 µM | 345 µM | – | Not Active | Not Active | < 50%
Cc1ccccc1/C=N/NC(=O)c1ccc(-c2nc3cccc(C)c3[nH]2)cc1 | Non-toxic | – | 158 µM | 340 µM | – | Not Active | Not Active | < 50%
COc1ccc(/C=N/NC(=O)c2ccc(-c3nc4cccc(C)c4[nH]3)cc2)cc1 | Non-toxic | – | 140 µM | 340 µM | – | Not Active | Not Active | < 50%
COc1cccc(/C=N/NC(=O)c2ccc(-c3nc4cccc(C)c4[nH]3)cc2)c1 | Non-toxic | – | 145 µM | 345 µM | – | Not Active | Not Active | < 50%
COc1ccc(/C=N/NC(=O)c2ccc(-c3nc4cccc(C)c4[nH]3)cc2)cc1OC | Non-toxic | – | 120 µM | 330 µM | – | Not Active | Not Active | < 50%
Cc1cccc2nc(-c3ccc(C(=O)N/N=C/c4ccco4)cc3)[nH]c12 | Non-toxic | – | 180 µM | 310 µM | – | Not Active | Not Active | < 50%
Cc1cccc2nc(-c3ccc(C(=O)N/N=C/c4cccs4)cc3)[nH]c12 | Non-toxic | – | 110 µM | 320 µM | – | Not Active | Not Active | < 50%
COC(=O)c1ccc(/C=N/NC(=O)c2ccc(-c3nc4cccc(C)c4[nH]3)cc2)cc1 | Non-toxic | 501 µM | 160 µM | 322 µM | – | Not Active | – | –
Cc1cccc2nc(-c3ccc(C(=O)N/N=C/c4ccc([N+](=O)[O-])cc4)cc3)[nH]c12 | Non-toxic | 450 µM | 138 µM | 312 µM | – | Not Active | – | –
N=C(N)c1ccc(OCCCCCOc2ccc(C(=N)N)cc2)cc1 [PENTAMIDINE] | – | – | – | – | 7.02 µM | – | – | –
CCCOC(=O)c1cc(O)c(O)c(O)c1 [PROPYL GALLATE] | – | – | 30.3 µM | 106 µM | – | – | – | –
C[C@@H]1O[C@@H](OC[C@H]2O[C@@H](Oc3c(-c4ccc(O)c(O)c4)oc4cc(O)cc(O)c4c3=O)[C@H](O)[C@@H](O)[C@@H]2O)[C@H](O)[C@H](O)[C@H]1O [RUTIN] | – | 294 µM | – | – | – | – | – | –
